Measurements taken from patent US10294202B2, “Pyrrolidinones as herbicides” (FMC Corporation, priority 2013, dated 2019).

How the values were obtained:
dayflower, VA = assay: Test E preemergence herbicide test; type: in vivo, Commelina virginica; set-up: key: 0 = no effect, 100 = complete control
Procedure, shortened: (§1)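 Seeds sown in silt loam soil received preemergence treatment with compound in a non-phytotoxic solvent mixture containing surfactant. After 21 days in the greenhouse, plants were visually rated against untreated controls on a 0 (no effect) to 100 (complete control) scale.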

johnsongrass = assay: Test E preemergence herbicide test; type: in vivo, Sorghum halepense; set-up: key: 0 = no effect, 100 = complete control
Procedure, shortened: as §1

Russian thistle = assay: Test D pre-/postemergence herbicide test; type: in vivo, Salsola kali; settings: Postemergence, Russian Thistle, scale 0 to 100
Procedure, shortened: (§2)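 Postemergence sprays were made on plants at the 1- to 4-leaf stage in peat-based medium, and preemergence sprays on seeds planted in silt loam. The formulation was a non-phytotoxic solvent mixture containing surfactant. Plants were compared with controls after 7 to 21 days and rated visually on a 0–100 scale.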

monochoria = assay: Test F flood (paddy) test; type: in vivo, Monochoria vaginalis; settings: 21 d, scale 0-100
Procedure, shortened: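 Compounds were applied directly to paddy water held 3 cm above silt loam soil, with rice and weeds at the 2.0–2.5-leaf stage, grown in a greenhouse at 30/27° C under a 16-h photoperiod. Visual ratings (0 no effect to 100 complete control) were made against untreated controls after 21 d.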

radish, wild = assay: Test D pre-/postemergence herbicide test; type: in vivo, Raphanus raphanistrum; settings: for Plant response rating: Postemergence, Radish, Wild, scale 0 to 100; for Plant response rating, Radish, Wild: Preemergence, scale 0 to 100 (0 no effect, 100 complete control)
Procedure, shortened: as §2

SMILES	Plant response rating, Dayflower, VA (dayflower, VA; 31 g ai/ha)	Plant response rating, Dayflower, VA (dayflower, VA; 62 g ai/ha)	Plant response rating, Dayflower, VA (dayflower, VA; 125 g ai/ha)	Plant response rating, Dayflower, VA (dayflower, VA; 250 g ai/ha)	Plant response rating, Johnsongrass (johnsongrass; 31 g ai/ha)	Plant response rating, Johnsongrass (johnsongrass; 62 g ai/ha)	Plant response rating, Johnsongrass (johnsongrass; 125 g ai/ha)	Plant response rating, Johnsongrass (johnsongrass; 250 g ai/ha)	Plant response rating, Monochoria (monochoria; 125 g ai/ha)	Plant response rating, Monochoria (monochoria; 250 g ai/ha)	Plant response rating, Monochoria (monochoria; 500 g ai/ha)	other results
O=C1NCC(c2ccc(F)c(F)c2)C1C(=O)Nc1cccc(F)c1F (centres unmarked) [Compound 17, N-(2,3-difluorophenyl)-4-(3,4-difluorophenyl)-2-oxo-3-pyrrolidinecarboxamide]	0	0	0	0	0	0	0	0	90	90	95	Plant response rating, Dayflower, VA (dayflower, VA; 16 g ai/ha): 0; Plant response rating, Johnsongrass (johnsongrass; 16 g ai/ha): 0; Plant response rating (Russian thistle; 16 g ai/ha): 0; Plant response rating (Russian thistle; 31 g ai/ha): 0; Plant response rating (Russian thistle; 62 g ai/ha): 0; Plant response rating (Russian thistle; 125 g ai/ha): 20; Plant response rating (Russian thistle; 250 g ai/ha): 40; Plant response rating, Monochoria (monochoria; 1000 g ai/ha): 95; Plant response rating, Monochoria (monochoria; 2000 g ai/ha): 95; Plant response rating (radish, wild; 16 g ai/ha): 0; Plant response rating (radish, wild; 31 g ai/ha): 0; Plant response rating (radish, wild; 62 g ai/ha): 0; Plant response rating (radish, wild; 125 g ai/ha): 15; Plant response rating (radish, wild; 250 g ai/ha): 15
O=C1NC[C@H](c2cccc(C(F)(F)F)c2)[C@H]1C(=O)Nc1cccc(F)c1F [Compound 206]	0	0	0	20	30	50	75	90	90	100	100	Plant response rating, Monochoria (monochoria; 64 g ai/ha): 80; Plant response rating, Radish, Wild (radish, wild; 62 g ai/ha): 25; Plant response rating, Radish, Wild (radish, wild; 125 g ai/ha): 30; Plant response rating, Radish, Wild (radish, wild; 31 g ai/ha): 25; Plant response rating, Radish, Wild (radish, wild; 250 g ai/ha): 30
